Source: patent publication US10793561B2, “1,8-naphthyridinone compounds and uses thereof” (NUVATION BIO INC., priority 2017, dated 2020)

What was measured:
adenosine A2A receptor [1] = molecular target: T1, adenosine A2A receptor (Homo sapiens (Human), UniProt P29274); assay: Radioligand binding competition assay, adenosine A2A receptor; conditions: for inhibition at 3 µM / A2A radioligand binding competition assay % residual binding @ 3000 nM: 3000 nM compound; for inhibition at 3 µM: read-out: A2a binding % inh @ 3000 nM; for inhibition at 0.3 µM: 300 nM compound, read-out: A2a binding % inh @ 300 nM
Method: Binding of selected compounds to the adenosine A1, A2A, A2B, and A3 receptors was tested using a binding competition assay.
The general protocol for the radioligand binding competition assay was as follows. Competition binding was performed in duplicate in the wells of a 96 well plate (Master Block, Greiner, 786201) containing binding buffer (optimized for each receptor), membrane extracts (amount of protein/well optimized for each receptor), radiotracer (final concentration optimized for each receptor), and test compound. Nonspecific binding was determined by co-incubation with 200-fold excess of cold competitor. The samples were incubated in a final volume of 0.1 mL at 25° C. for 60 minutes and then filtered over filter plates. Filters were washed six times with 0.5 mL of ice-cold washing buffer (optimized for each receptor) and 50 μL of Microscint 20 (Packard) were added on each filter. The filter plates were sealed, incubated 15 min on an orbital shaker and scintillation counted with a TopCount for 30 sec/filter.
For the adenosine A2A receptor radioligand binding assay, the following modifications were made to the general protocol. GF/C filters (Perkin Elmer, 6005174), presoaked in 0.01% Brij for 2 h at room temperature were used. Filters were washed six times with 0.5 mL of ice-cold washing buffer (50 mM Tris pH 7.4) and 50 μL of Microscint 20 (Packard) was added in each well. The plates were then incubated for 15 min on an orbital shaker and then counted with a TopCount™ for 1 min/well.
Another radioligand binding assay was used to evaluate the binding affinity for the adenosine A2A receptor assay was performed in duplicate in the wells of a 384 plate. Assay buffer contained DPBS 500 mM, MgCl2 0.1 mM, and 1% DMSO. Membrane-bead suspension was prepared by mixing 25.98 μL of human adenosine A2A membrane preparation (Perkin Elmer, RBHA2AM400UA) at 33.4 pg/mL, 28 μL of ADA at 20 pg/mL, and 932 μL of SPA beads at 3.33 mg/mL) and incubated the mixture for 20 min at room temperature. Mixed 20 μL of radiotracer (^3H-SCH 58261) at 15 nM to each well containing test articles at various concentrations and centrifuge the plate at 1000 rpm for 1 minute. Added 30 μL of the membrane-bead suspension to each well. Sealed the plates and incubated for 1 hr at room temperature with vigorous mixing on a plate mixer. Plates were read on Microbeta^2 (Perkin Elmer, 2450-0010).
CHO-K1-A3 cell membranes, 1.5 μg/well; a binding buffer comprising HEPES 25 mM pH 7.4, MgCl2 5 mM, CaCl2 1 mM, 0.5% BSA; a wash buffer comprising HEPES 25 mM pH 7.4, MgCl2 5 mM, CaCl2 1 mM; a Unifilter GF/C—treated for 2 h with 0.5% BS; and 0.4 nM of ^125I-AB-MECA as the tracer. The results of the binding assay are shown in Table B1-1 and are shown as percent residual binding at a given concentration. Percent of residual binding means binding of a compound in the presence of competitor normalized to the amount of binding in the absence of competitor. […] For example, compound 1 strongly bound to A2A (30% residual binding at a concentration of 100 nM), A1 (−3% residual binding at 300 nM) and A2B, (−9% residual binding at 300 nM) but weakly bound to A3 (96% residual binding at 300 nM).

adenosine A2A receptor [2] = molecular target: T1, adenosine A2A receptor; assay: cAMP assay in HEK-293 cells expressing human recombinant adenosine A2A receptor; assay type: cell-based; conditions: for inhibition at 0.1 µM / inhibition at 0.3 µM: HEK293; for inhibition at 0.1 µM: 100 nM compound, read-out: A2a cAMP % inh @ 100 nM; for inhibition at 0.3 µM: 300 nM compound, read-out: A2a cAMP % inh @ 300 nM
Method: The functional activity of compounds was tested using one of the two assays to detect the present of cAMP. Activation of G-protein coupled receptors (such as A2A) results in activation of adenylcyclase which converts ATP into cAMP which is used as a downstream signaling molecule. Therefore, molecules which act as GPCR (or specifically A2A receptor) antagonists cause a decrease in intracellular cAMP concentration.
Both assays used HEK-293 cells expressing human recombinant adenosine A2A receptor were grown prior to the test in media without antibiotic. Assay 1: The cells were detached by gentle flushing with PBS-EDTA (5 mM EDTA), recovered by centrifugation and suspended in assay buffer (KRH: 5 mM KCl, 1.25 mM MgSO4, 124 mM NaCl, 25 mM HEPES, 13.3 mM Glucose, 1.25 mM KH2PO4, 1.45 mM CaCl2, 0.5 g/L BSA, supplemented with Rolipram).
12 μL of cells were mixed with 6 μL of the test compound at increasing concentrations and then incubated for 10 min. Thereafter 6 μL of the reference agonist was added at a final concentration corresponding to the historical EC80. The plates were then incubated for 30 min at room temperature. After addition of the lysis buffer and 1 hour incubation, cAMP concentrations were estimated, according to the manufacturer specification, with the HTRF® kit.
Assay 2: 100 nL of test articles at 100× of final concentration were transferred to assay plate by Echo. Cells were washed twice with 5 mL of PBS […]. After aspirating the PBS and adding 1.5 mL versine, cells were incubated at 37° C. for 2-5 min. After centrifugation, 4 mL of medium was added and adjusted cell density to 5,000 cells/well with stimulation buffer. 10 μL of cells were aliquoted to the assay plate, centrifuged at 1000 rpm for 1 minute, and incubated for 60 minutes at room temperature. 5 μL 4× Eu-cAMP tracer solution and 5 μL 4× Ulight™-anti-cAMP solution were added to assay plate, followed by centrifugation and 60-minute incubation at room temperature. Plates were read on EnVision.

T1 sequence (P29274 whole entry): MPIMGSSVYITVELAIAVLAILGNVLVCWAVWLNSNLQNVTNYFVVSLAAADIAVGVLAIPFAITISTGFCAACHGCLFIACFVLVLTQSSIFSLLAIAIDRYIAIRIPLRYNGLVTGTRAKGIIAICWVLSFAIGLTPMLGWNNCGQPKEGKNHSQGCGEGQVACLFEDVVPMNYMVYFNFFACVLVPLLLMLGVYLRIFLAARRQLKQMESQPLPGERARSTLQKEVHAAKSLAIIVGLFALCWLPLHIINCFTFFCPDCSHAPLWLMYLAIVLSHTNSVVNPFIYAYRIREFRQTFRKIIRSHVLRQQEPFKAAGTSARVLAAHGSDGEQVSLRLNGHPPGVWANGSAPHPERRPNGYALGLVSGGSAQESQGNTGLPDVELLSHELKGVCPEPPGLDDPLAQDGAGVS

Structure (SMILES) | A2A radioligand binding competition assay % residual binding @ 3000 nM (adenosine A2A receptor [1]) | inhibition at 0.1 µM (adenosine A2A receptor [2]) | other results
O=c1cc[nH]c2nc(-n3cccn3)c(-c3ccc4ncccc4c3)cc12 [Compound No. 1.100, 7-(1H-pyrazol-1-yl)-6-(quinolin-6-yl)-1,8-naphthyridin-4(1H)-one] | – | – | inhibition at 3 µM (adenosine A2A receptor [1]): 78%; IC50 (adenosine A2A receptor [2]; second cAMP table): 3.22 µM
O=c1ccc2cc(-c3cc(Cl)c4ncccc4c3)c(-c3ccccc3)nc2[nH]1 [Compound No. 1.12, 6-(8-chloroquinolin-6-yl)-7-phenyl-1,8-naphthyridin-2 (1H)-one] | 14/ND/ND/ND % | 100% | –
Cn1cnc2cc(-c3cc4c(=O)cc[nH]c4nc3-c3ccccc3)ccc21 [Compound No. 1.22, 6-(1-methyl-1H-benzo[d]imidazol-5-yl)-7-phenyl-1,8-naphthyridin-4(1H)-one] | 69/ND/ND/ND % | 30% | –
O=c1cc[nH]c2nc(-c3ccccc3)c(-c3ccc4ncncc4c3)cc12 [Compound No. 1.101] | – | – | inhibition at 3 µM (adenosine A2A receptor [1]): 72%; IC50 (adenosine A2A receptor [2]; second cAMP table): 0.182 µM
Cc1ccc(-c2nc3[nH]ccc(=O)c3cc2-c2ccc3ncccc3c2)o1 [Compound No. 1.25, 7-(5-methylfuran-2-yl)-6-(quinolin-6-yl)-1,8-naphthyridin-4(1H)-one] | 0/ND/ND/ND % | – | IC50 (adenosine A2A receptor [2]; first cAMP table): 0.0188 µM
O=c1cc[nH]c2nc(-c3ccccc3)c(-c3ccc4cnccc4c3)cc12 [Compound No. 1.9, 6-(isoquinolin-6-yl)-7-phenyl-1,8-naphthyridin-4(1H)-one] | 70/ND/ND/ND % | 30% | –
O=c1ccc2cc(-c3ccc4[nH]c(=O)[nH]c4c3)c(-c3ccccc3)nc2[nH]1 [Compound No. 1.32, 6-(2-oxo-2,3-dihydro-1H-benzo[d]imidazol-5-yl)-7-phenyl-1,8-naphthyridin-2(1H)-one] | – | – | inhibition at 0.3 µM (adenosine A2A receptor [1]): 0%
O=c1cc[nH]c2nc(-c3ccncc3)c(-c3ccc4ncccc4c3)cc12 [Compound No. 1.18, 7-(pyridin-4-yl)-6-(quinolin-6-yl)-1,8-naphthyridin-4(1H)-one] | 38/ND/ND/ND % | 61% | –
O=c1cc[nH]c2nc(-c3ccccc3)c(-c3ccc4ccccc4c3)cc12 [Compound No. 1.16, 6-(naphthalen-2-yl)-7-phenyl-1,8-naphthyridin-4(1H)-one] | 76/ND/ND/ND % | 23% | –
O=c1cc[nH]c2nc(-c3ccccc3)c(-c3cccc(Cl)c3)cc12 [Compound No. 1.30, 6-(3-chlorophenyl)-7-phenyl-1,8-naphthyridin-4(1H)-one] | – | – | inhibition at 0.3 µM (adenosine A2A receptor [1]): 0%
Cn1ccc(=O)c2cc(-c3ccc4ncccc4c3)c(-c3ccccc3)nc21 [Compound No. 1.8, 1-methyl-7-phenyl-6-(quinolin-6-yl)-1,8-naphthyridin-4(1H)-one] | 106/ND/ND/ND % | 0% | –
Cc1cc(Cl)cc(-c2cc3ccc(=O)[nH]c3nc2-c2ccccc2)c1 [Compound No. 1.35, 6-(3-chloro-5-methylphenyl)-7-phenyl-1,8-naphthyridin-2(1H)-one] | – | – | inhibition at 3 µM (adenosine A2A receptor [1]): 0%; inhibition at 0.3 µM (adenosine A2A receptor [2]): 12%
Cc1ccc(-c2nc3[nH]c(=O)ccc3cc2-c2ccc3ncccc3c2)o1 [Compound No. 1.29, 7-(5-methylfuran-2-yl)-6-(quinolin-6-yl)-1,8-naphthyridin-2(1H)-one] | – | 77% | –
O=c1ccc2cc(-c3ccc4[nH]cnc4c3)c(-c3ccccc3)nc2[nH]1 [Compound No. 1.6, 6-(1H-benzo[d]imidazol-5-yl)-7-phenyl-1,8-naphthyridin-2(1H)-one] | 57/ND/ND/ND % | 43% | –
O=c1ccc2cc(-c3cccc(Cl)c3)c(-c3ccccc3)nc2[nH]1 [Compound No. 1.31, 6-(3-chlorophenyl)-7-phenyl-1,8-naphthyridin-2(1H)-one] | – | – | inhibition at 0.3 µM (adenosine A2A receptor [1]): 0%
O=c1cc[nH]c2nc(-c3ccccc3)c(-c3ccc4[nH]ncc4c3)cc12 [Compound No. 1.102, 6-(3a,7a-dihydro-1H-indazol-5-yl)-7-phenyl-1,8-naphthyridin-4(1H)-one] | – | – | inhibition at 3 µM (adenosine A2A receptor [1]): 77%; IC50 (adenosine A2A receptor [2]; second cAMP table): 0.292 µM
O=c1ccc2cc(-c3ccncc3)c(-c3ccccc3)nc2[nH]1 [Compound No. 1.34, 7-phenyl-6-(pyridin-4-yl)-1,8-naphthyridin-2(1H)-one] | – | – | inhibition at 3 µM (adenosine A2A receptor [1]): 30%; inhibition at 0.3 µM (adenosine A2A receptor [2]): 26%
Cc1ccc(-c2nc3[nH]ccc(=O)c3cc2-c2ccc3ncsc3c2)o1 [Compound No. 1.98, 6-(benzo[d]thiazol-6-yl)-7-(5-methylfuran-2-yl)-1,8-naphthyridin-4(1H)-one] | – | – | inhibition at 3 µM (adenosine A2A receptor [1]): 85%; IC50 (adenosine A2A receptor [2]; second cAMP table): 0.0172 µM
O=c1cc[nH]c2nc(-c3ccccc3)c(-c3ccc4ocnc4c3)cc12 [Compound No. 1.21, 6-(benzo[d]oxazol-5-yl)-7-phenyl-1,8-naphthyridin-4(1H)-one] | 54/ND/ND/ND % | 45% | –
O=c1ccc2cc(-c3cc(Cl)c4[nH]cnc4c3)c(-c3ccccc3)nc2[nH]1 [Compound No. 1.19, 6-(7-chloro-1H-benzo[d]imidazol-5-yl)-7-phenyl-1,8-naphthyridin-2(1H)-one] | 25/ND/ND/ND % | 74% | –
O=c1cc[nH]c2nc(-c3cccnc3)c(-c3ccc4ncccc4c3)cc12 [Compound No. 1.28, 7-(pyridin-3-yl)-6-(quinolin-6-yl)-1,8-naphthyridin-4(1H)-one] | – | 46% | –
COc1cc(-c2cc3c(=O)cc[nH]c3nc2-c2ccccc2)cc2cccnc12 [Compound No. 1.26, 6-(8-methoxyquinolin-6-yl)-7-phenyl-1,8-naphthyridin-4(1H)-one] | – | 64% | –
O=c1cc[nH]c2nc(-c3ccco3)c(-c3ccc4[nH]cnc4c3)cc12 [Compound No. 1.27, 6-(1H-benzo[d]imidazol-5-yl)-7-(furan-2-yl)-1,8-naphthyridin-4(1H)-one] | – | 88% | –
Cc1ccn(-c2nc3[nH]ccc(=O)c3cc2-c2ccc3ncccc3c2)n1 [Compound No. 1.92, 7-(3-methyl-1H-pyrazol-1-yl)-6-(quinolin-6-yl)-1,8-naphthyridin-4(1H)-one] | – | – | IC50 (adenosine A2A receptor [2]; second cAMP table): 0.357 µM
